# Laboratory results published in US7994167B2, “Pentafluorosulphanyl-substituted compound and its use for producing medicaments” (Gruenenthal GmbH, priority 2005, dated 2011).
# Where two headings read alike, the source gives them in different places.
# Columns and labels:
# VR1 (human) = molecular target: T1, VR1 (human) (Homo sapiens, UniProt Q8NER1); assay: FLIPR Ca2+ influx assay in CHO K1 cells stably transfected with the VR1 gene (functional investigation II); assay type: cell-based; conditions: for VR1 (human) (% blocking compared with 1 μM CP) / VR1 (human) (% stimulation compared with 1 μM CP): VR1-transfected CHO K1 cells; for VR1 (human) (% blocking compared with 1 μM CP): 5 min incubation, then 100 nM capsaicin; for VR1 (human) (% stimulation compared with 1 μM CP): Ca2+ signal relative to capsaicin (CP)
# T1 construct: expressed in transfected cells; host or cells: CHO K1 cells (ECACC)
# T1 sequence (Q8NER1 whole entry): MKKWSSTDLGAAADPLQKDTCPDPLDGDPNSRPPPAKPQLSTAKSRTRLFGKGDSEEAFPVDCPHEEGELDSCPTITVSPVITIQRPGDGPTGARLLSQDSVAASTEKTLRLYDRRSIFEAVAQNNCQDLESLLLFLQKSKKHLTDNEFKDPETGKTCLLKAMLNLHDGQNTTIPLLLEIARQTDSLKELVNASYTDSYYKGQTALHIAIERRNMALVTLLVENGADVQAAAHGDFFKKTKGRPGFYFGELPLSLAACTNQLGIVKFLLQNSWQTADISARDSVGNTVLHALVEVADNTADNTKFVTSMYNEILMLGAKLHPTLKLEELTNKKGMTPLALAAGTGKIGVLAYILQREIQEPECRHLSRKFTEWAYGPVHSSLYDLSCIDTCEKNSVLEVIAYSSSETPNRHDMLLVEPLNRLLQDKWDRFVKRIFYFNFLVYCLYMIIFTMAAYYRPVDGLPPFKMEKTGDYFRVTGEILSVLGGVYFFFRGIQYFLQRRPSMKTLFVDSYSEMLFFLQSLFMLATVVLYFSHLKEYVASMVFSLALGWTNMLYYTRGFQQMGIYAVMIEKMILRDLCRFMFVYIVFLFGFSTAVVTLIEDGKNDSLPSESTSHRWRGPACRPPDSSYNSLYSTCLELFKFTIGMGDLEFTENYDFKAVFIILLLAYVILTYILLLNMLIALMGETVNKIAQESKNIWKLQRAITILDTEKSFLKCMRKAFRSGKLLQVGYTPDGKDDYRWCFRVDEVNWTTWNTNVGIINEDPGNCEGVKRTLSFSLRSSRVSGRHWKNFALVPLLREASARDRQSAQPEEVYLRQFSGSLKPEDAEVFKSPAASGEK
# Description: II. Functional Investigation Using the Vanilloid Receptor (VR1)
# The agonistic or antagonistic effect of the substances to be investigated on the vanilloid receptor (VR1) can also be determined with the following assay. According to this assay, the Ca^2+ influx through the channel can be quantified with the aid of a Ca^2+ sensitive dye (of the type Fluo-4, from Molecular Probes, Europe BV, Leiden, Netherlands) in a Fluorescent Imaging Plate Reader (FLIPR, from Molecular Devices, Sunnyvale, USA).
# Chinese hamster ovary cells (CHO K1-cells, from the European Collection of Cell Cultures (ECACC), UK) were stably transfected with the VR1 gene. For functional investigations, these cells were plated out on Poly-D-lysine-coated, black 96-well plates with clear bases (from BD Biosciences, Heidelberg, Germany) at a density of 25,000 cells/well. The cells were incubated over night at 37° C. and under 5% CO2 in a culture medium (Nutrient Mixture Ham's F12, 10% by volume FCS (foetal calf serum), 18 μg/ml L-proline). The following day, the cells were incubated with Fluo-4 (Fluo-4 2 μM, Pluronic F127 0.01% by volume, from Molecular Probes in HBSS (Hank's buffered saline solution), from Gibco Invitrogen GmbH, Karlsruhe, Germany) for 30 minutes at 37° C. Subsequently, the plates were washed 3 times with HBSS buffer and, following a further period of incubation for 15 minutes at room temperature, placed in the FLIPR for Ca^2+ measurement. The Ca^2+-dependent fluorescence was measured before and after the addition of the substances to be investigated (wavelength λBX=488 nm, λem=540 nm). Quantification took place by measuring the highest intensity of fluorescence (FC, fluorescence counts) over time.
# The FLIPR protocol comprises 2 substance additions. […] Following 5 minutes of incubation, 100 nM capsaicin were applied and the Ca^2+ influx determined again.
# Desensitising agonists and antagonists lead to a suppression of the Ca^2+ influx. % inhibition is calculated, compared with the maximum achievable inhibition with 10 μM capsaicin.
# [1] = molecular target: vanilloid receptor 1 (VR1/TRPV1 receptor) (Homo sapiens, UniProt Q8NER1); assay: Binding affinity for the vanilloid receptor 1
# vanilloid receptor 1 (VR1/TRPV1 receptor), sequence (Q8NER1 whole entry, species assumed): as the sequence (Q8NER1 whole entry) above
# Experimental: The affinity of the pentafluorosulphanyl-substituted compounds according to the invention for the vanilloid receptor 1 (VR1/TRPV1 receptor) was determined as described above.
# [2] = molecular target: T2, vanilloid receptor 1 (VR1/TRPV1) of the rat (Rattus norvegicus, UniProt O35433); assay: FLIPR Ca2+ influx assay in rat dorsal root ganglia cells (functional investigation I); assay type: cell-based; conditions: for IC50: VR1 rat; for VR1 (rat) (% blocking compared with 1 μM CP) / VR1 (rat) (% stimulation compared with 1 μM CP): rat DRG cells, test compound 1 μM; for VR1 (rat) (% blocking compared with 1 μM CP): 5 min incubation, then 100 nM capsaicin; for VR1 (rat) (% stimulation compared with 1 μM CP): Ca2+ signal relative to 1 μM capsaicin (CP)
# T2 construct: The spinal column was removed from decapitated rats; from tissue; host or cells: primary rat dorsal root ganglion (DRG) cells
# T2 sequence (O35433 whole entry): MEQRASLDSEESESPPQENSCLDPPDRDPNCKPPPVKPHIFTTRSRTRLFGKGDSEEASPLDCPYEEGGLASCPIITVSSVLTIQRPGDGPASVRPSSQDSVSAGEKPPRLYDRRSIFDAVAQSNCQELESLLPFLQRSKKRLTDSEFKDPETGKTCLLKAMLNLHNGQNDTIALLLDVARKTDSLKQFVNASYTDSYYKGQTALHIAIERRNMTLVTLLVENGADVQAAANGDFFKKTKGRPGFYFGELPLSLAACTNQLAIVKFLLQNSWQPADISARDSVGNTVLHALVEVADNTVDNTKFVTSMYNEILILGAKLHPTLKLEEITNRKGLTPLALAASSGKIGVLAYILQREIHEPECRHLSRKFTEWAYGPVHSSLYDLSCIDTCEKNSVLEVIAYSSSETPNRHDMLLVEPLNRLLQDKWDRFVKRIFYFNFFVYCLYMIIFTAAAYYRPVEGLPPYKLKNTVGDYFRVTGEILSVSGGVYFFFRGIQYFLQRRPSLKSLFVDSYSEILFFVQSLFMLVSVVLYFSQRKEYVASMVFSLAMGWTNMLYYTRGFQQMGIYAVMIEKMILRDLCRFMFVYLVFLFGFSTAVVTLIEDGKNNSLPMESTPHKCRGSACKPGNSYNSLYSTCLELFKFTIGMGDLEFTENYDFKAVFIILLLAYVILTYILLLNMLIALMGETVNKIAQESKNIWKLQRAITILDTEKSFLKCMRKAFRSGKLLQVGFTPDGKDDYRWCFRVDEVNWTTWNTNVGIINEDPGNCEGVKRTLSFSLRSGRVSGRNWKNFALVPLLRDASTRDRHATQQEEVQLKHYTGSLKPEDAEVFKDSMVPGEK
# Description: I. Functional Investigation Using the Vanilloid Receptor 1 (VR1/TRPV1 Receptor)
# The agonistic and antagonistic effects of the substances under investigation on the vanilloid receptor 1 (VR1/TRPV1) of the rat can be determined using the following assay. According to this assay, the Ca^2+ influx through the receptor channel is quantified with the aid of a Ca^2+-sensitive dye (of the type Fluo-4, from Molecular Probes Europe BV, Leiden, Netherlands) in a Fluorescent Imaging Plate Reader (FLIPR, from Molecular Devices, Sunnyvale, USA).
# Complete medium: 10% by volume FCS (foetal calf serum, from Gibco Invitrogen GmbH, Karlsruhe, Germany, heat deactivated);
# 2 mM L-glutamine (from Sigma, Munich, Germany);
# 1% by weight of AA solution (antibiotic/antimycotic solution, from PAA, Pasching, Austria) and 25 ng/ml Medium NGF (2.5 S, from Gibco Invitrogen GmbH, Karlsruhe, Germany)
# Cell culture plate: poly-D-lysine-coated, black 96-well plates with clear bases (96 well black/clear plate, from BD Biosciences, Heidelberg, Germany) were also coated with laminin (from Gibco Invitrogen GmbH, Karlsruhe, Germany), in that the laminin was diluted to a concentration of 100 μg/ml with PBS (Ca—Mg-free PBS, from Gibco Invitrogen GmbH, Karlsruhe, Germany). Aliquots with a concentration of 100 μg/ml of laminin were taken and stored at −20° C. The aliquots were diluted with PBS in a ratio of 1:10 to 10 μg/ml laminin and 50 μl of the solution was pipetted into each well in the cell culture plate. The cell culture plates were then incubated for at least two hours at 37° C., the residual solution drawn off and the wells washed twice with PBS. The coated cell culture plates were stored with the residual PBS, which was removed immediately before offering up the cells.
# Preparation of the Cells:
# The spinal column was removed from decapitated rats and laid directly into cold (placed in an ice bath) HBSS buffer (Hank's buffered saline solution, from Gibco Invitrogen GmbH, Karlsruhe, Germany) to which was added 1% by volume of an AA-solution (antibiotic/antimycotic solution, from PAA, Pasching, Austria). The spinal column was bisected longitudinally and removed, together with the fasciae, from the vertebral canal. The dorsal root ganglia (DRGs) were then removed and again placed in cold HBSS buffer to which was added 1% by volume of an AA-solution, and stored. The DRGs, completely freed from residual blood and spinal nerves were transferred, in each case, into 500 μl cold collagenase type 2 (from PAA, Pasching, Austria) and incubated for 35 minutes at 37° C. Following addition of 2.5% by volume of trypsin (from PAA, Pasching, Austria), the material was incubated for a further 10 minutes at 37° C. Following complete incubation, the enzyme solution was carefully pipetted off and 500 μl complete medium was added to the remaining DRGs. The DRGs were suspended several times in each case, drawn by means of a syringe through No. 1, No. 12 and No. 16 cannulae and transferred to 50 ml Falcon tubes and these then filled to 15 ml with complete medium. The contents of each Falcon tube was filtered through a 70 μm Falcon filter insert and centrifuged for 10 minutes at 1200 revolutions and at room temperature. The resulting pellet was added, in each case, to 250 μl complete medium and the cell count was determined.
# The number of cells in the suspension was adjusted to 3×10^5 per ml and, in each case, 150 μl of this suspension was placed in a well in the coated cell culture plate of the type described above. The plates were left in an incubation cupboard at 37° C. under 5% by volume CO2 and 95% relative humidity for two to three days. […]
"IC50 (VR1 (human); VR1 human, read-out: IC50 (human)) [nM]",Ki ([1]; read-out: Binding Ki) [nM],SMILES,VR1 (human) (% blocking compared with 1 μM CP) (VR1 (human)) [%],VR1 (human) (% stimulation compared with 1 μM CP) (VR1 (human)) [%],IC50 [2] [nM],VR1 (rat) (% blocking compared with 1 μM CP) [2] [%],VR1 (rat) (% stimulation compared with 1 μM CP) [2] [%],IC50 (VR1 (human)) [nM],Ki [1] [nM]
800,84,"CS(=O)(=O)Nc1ccc(CNC(=S)NCc2ccc(S(F)(F)(F)(F)F)cc2)cc1F [Example 1, N-{4-[3-(4-pentafluorosulphanyl-benzyl)-thioureidomethyl]-2-fluoro-phenyl}-methanesulphonamide]",87.67,0.68,360,90.27,0.02,,
,,"O=C(Nc1ccc(S(F)(F)(F)(F)F)cc1)N1CCN(c2ncccc2Cl)CC1 [Example 2, 4-(3-chloro-pyridin-2-yl)-piperazine-1-carboxy-(4-pentafluorosulphanyl-phenyl)-amide]",105.44,3.72,48,101.93,0.63,250,12
,94,"FS(F)(F)(F)(F)c1ccc(NC(=S)N2CCN(c3ncccc3Cl)CC2)cc1 [Example 3, 4-(3-chloro-pyridin-2-yl)-piperazine-1-thiocarboxy-(4-pentafluorosulphanyl-phenyl)-amide]",,,,,,,
